Columns and labels:
[1] = system: adult patients with early type 2 diabetes mellitus and increased CV risk or established complications; experiment: Cardiovascular Safety Trial (linagliptin versus glimepiride); format: in vivo
Experimental: The effect of linagliptin on cardiovascular risk in adult patients with early type 2 diabetes mellitus and increased CV risk or established complications was evaluated in this Cardiovascular Safety Trial, a multi-center, multi-national, randomized, double-blind parallel group trial. The trial compared the risk of experiencing a major adverse cardiovascular event (MACE) between linagliptin and glimepiride when these were added to standard of care (including background therapy with metformin) based on regional standards for HbA1c and CV risk factors. The trial was event driven and patients were followed until at least 631 primary outcome events accrued.
A total of 6033 patients were treated (linagliptin 5 mg=3023; glimepiride 1 mg to 4 mg=3010) and followed for a median of 6.25 years (median time on treatment 5.9 years). Approximately 73% of the study population was Caucasian, 18% was Asian, and 5% was Black. The mean age was 64 years and 60% were male.
At baseline, disease characteristics were balanced. […] The trial population included 2030 (34%) patients ≥70 years of age, 2089 (35%) patients with cardiovascular disease, and 1130 (19%) patients with renal impairment with an eGFR <60 mL/min/1.73 m2 at baseline. Overall, the previous use of diabetes medications was balanced across treatment groups (metformin 83% continued as background therapy, sulfonylurea 28% discontinued prior to randomization), patients on insulin were excluded. The use of medications to reduce cardiovascular risk was also balanced (aspirin 47%, statins 65%, ACE inhibitors or ARBs 74%, beta blockers 39%, and calcium channel blockers 30%).
The primary endpoint in this Cardiovascular Safety Trial was the time to first occurrence of three point (3P) MACE. A major adverse cardiac event was defined as a cardiovascular death or a nonfatal myocardial infarction (MI) or a nonfatal stroke. The statistical analysis plan tested for non-inferiority for the occurrence of 3P MACE. The key secondary endpoint evaluated the composite of treatment sustainability defined as the proportion of patients on study treatment, that maintain glycemic control (HbA1c≤7.0%) without need for additional antidiabetic drug therapy (rescue medication), without any moderate (symptomatic with glucose value <70 mg/dL) or severe (requiring assistance) hypoglycemic episodes, and without >2% weight gain from baseline.
Cardiovascular Outcome Trial of Linagliptin Versus Glimepriride in Type 2 Diabetes—assessing long-term cardiovascular impact of linagliptin versus the sulphonylurea glimepiride in subjects with early type 2 diabetes and increased cardiovascular risk or established complications. […]
Type 2 diabetes patient with insufficient glycemic control (naïve or currently treated (mono or dual therapy) with e.g. metformin and/or an alpha-glucosidase inhibitor (e.g. having HbA1c 6.5-8.5%), or currently treated (mono or dual therapy) with e.g. a sulphonylurea or glinide, with or without metformin or an alpha-glucosidase inhibitor (e.g. having HbA1c 6.5-7.5%)) and increased or high risk of cardiovascular events, e.g. defined as one or more of risk factors A), B), C) and D) indicated below, are randomized* and treated over a lengthy period (e.g. up to 432 weeks) with linagliptin (5 mg, q.d., optionally in combination with one or more other active substances, e.g. such as added to existing antidiabetic background) and compared with patients treated with the sulphonylurea glimepiride (1-4 mg once daily). * Upon randomization, if a patient is on a SU or glinide, this secretagogue therapy is discontinued and replaced with study medication. For patients not on a secretagogue, study medication is added to the existing regimen.
Time to first occurrence of any of the following adjudicated components of the primary composite endpoint: […]

patients with T2D = settings: compared to placebo; cited from earlier work
[2] = baseline to Final Visit, all observed cases
[3] = baseline to Final Visit, observed cases including values after rescue medication
[4] = both, human, in vivo, 5.9 years
[5] = both, human, in vivo, 6.25 years
[6] = component of secondary composite
[7] = from end of titration (16 weeks) to final visit
[8] = median follow-up 6.25 years, listed as glimepiride

CCC1=C(C)CN(C(=O)NCCc2ccc(S(=O)(=O)NC(=O)N[C@H]3CC[C@H](C)CC3)cc2)C1=O [Glimepiride]
patients with macroalbuminuria (>300 mg/g) ([1]; at Final Visit): 1.4% | patients with microalbuminuria (≥30 to ≤300 mg/g) ([1]; at Final Visit): 16.0% | patients with normal UACR (<30 mg/g) ([1]; at baseline and at Final Visit): 57.7% | FPG, Change from baseline, adjusted mean [1, 2]: 19.7 mg/dL | HBA1c, Change from baseline, adjusted mean [1, 2]: 0.15% | Creatinine, Change from baseline, adjusted mean [1, 3]: 0.09 mg/dL | HDL, Change from baseline, adjusted mean [1, 3]: 0.3 mg/dL | LDL, Change from baseline, adjusted mean [1, 3]: -6.5 mg/dL | Total cholesterol, Change from baseline, adjusted mean [1, 3]: -5.0 mg/dL | Triglyceride, Change from baseline, adjusted mean [1, 3]: 5.2 mg/dL | Urinary albumin, Change from baseline, adjusted mean [1, 3]: 45.2 mg/dL | third key secondary endpoint of treatment sustainability (on medication, HbA1c≤7.0%, no rescue, no >2% weight gain), responders ([1]; between Visit 6 and Final Visit): 14.1% | Hospitalization for heart failure (HHF), Incidence Rate per 1000 PY ([1]; both, human, in vivo): 5.3 per 1000 PY | Hospitalization for heart failure (HHF), Number of Subjects ([1]; both, human, in vivo): 92 | Patients with any moderate/severe hypoglycemic episodes, Number of Subjects ([1]; both, human, in vivo): 791 | Patients with any moderate/severe hypoglycemic episodes, Subjects (%) ([1]; both, human, in vivo): 27.5% | Secondary CV composite (4P-MACE), Incidence Rate per 1000 PY ([1]; both, human, in vivo): 23.7 per 1000 PY | rate of moderate or severe hypoglycemia [1, 4]: 30.9% | severe hypoglycemia (requiring assistance) [1, 4]: 2.2% | Hospitalization for heart failure (HHF), Subjects (%) [1, 5]: 3.1% | Premature discontinuation from trial medication due to adverse events [1, 5]: 17.4% | Primary CV composite (3P-MACE), Incidence Rate per 1000 PY [1, 5]: 21.2 per 1000 PY | all-cause mortality, incidence rate per 1000 years at risk [1, 5]: 18.4 per 1000 years at risk | any adjudicated event (secondary CV endpoint), % of patients [1, 5]: 17.8% | hospitalisation for heart failure combined with CV death, incidence rate per 1000 years at risk [1, 5]: 13.4 per 1000 years at risk | hospitalisation for heart failure, incidence rate per 1000 years at risk [1, 5]: 5.3 per 1000 years at risk | investigator-reported heart failure AEs, % of patients [1, 5]: 5.2% | investigator-reported heart failure AEs, incidence rate per 1000 years at risk [1, 5]: 9.0 per 1000 years at risk | non-CV death, % of patients [1, 5]: 5.6% | non-CV death, incidence rate per 1000 years at risk [1, 5]: 9.2 per 1000 years at risk | proportion of patients with CV death contributing to the 3P-MACE [1, 5]: 4.2% | proportion of patients with CV death contributing to the 4P-MACE [1, 5]: 4.1% | proportion of patients with hospitalisation for unstable angina pectoris contributing to the 4P-MACE [1, 5]: 1.8% | proportion of patients with non-fatal MI contributing to the 3P-MACE [1, 5]: 4.6% | proportion of patients with non-fatal MI contributing to the 4P-MACE [1, 5]: 4.3% | proportion of patients with non-fatal stroke contributing to the 3P-MACE [1, 5]: 3.4% | proportion of patients with non-fatal stroke contributing to the 4P-MACE [1, 5]: 3.3% | Patients with maintained glycemic control (HbA1c ≤7.0%), Number of Subjects [1, 6]: 554 | Patients with maintained glycemic control (HbA1c ≤7.0%), Subjects (%) [1, 6]: 18.5% | Patients with ≤2% weight gain, Number of Subjects [1, 6]: 699 | Patients with ≤2% weight gain, Subjects (%) [1, 6]: 23.3% | Secondary composite of treatment sustainability (on treatment, HbA1c ≤7.0%, no rescue, no moderate/severe hypoglycemic episodes, no >2% weight gain), Number of Subjects [1, 7]: 305 | Secondary composite of treatment sustainability (second key secondary endpoint), Subjects (%) [1, 7]: 10.2% | first intake of rescue medication, incidence rate per 1000 years at risk ([1]; in vivo): 115.5 per 1000 years at risk | rate of patients who used rescue medication ([1]; in vivo): 47.1% | All-cause mortality, Incidence Rate per 1000 PY ([1]; median follow-up 6.25 years): 18.4 per 1000 PY | All-cause mortality, Number of Subjects ([1]; median follow-up 6.25 years): 336 | All-cause mortality, Subjects (%) ([1]; median follow-up 6.25 years): (11.2) % | HHF or CV death, Incidence Rate per 1000 PY ([1]; median follow-up 6.25 years): 13.4 per 1000 PY | HHF or CV death, Number of Subjects ([1]; median follow-up 6.25 years): 234 | HHF or CV death, Subjects (%) ([1]; median follow-up 6.25 years): (7.8) % | Secondary CV composite (cardiovascular death, non-fatal MI, non-fatal stroke and hospitalization for unstable angina; 4P-MACE), Number of Subjects ([1]; median follow-up 6.25 years): 401 | Primary CV composite (cardiovascular death, non-fatal MI, non-fatal stroke; 3P-MACE), Number of Subjects ([1]; median follow-up 6.25 years, added to standard of care): 362 | All-cause mortality, Subjects (%) [1, 8]: 12.3% | HHF or CV death, Subjects (%) [1, 8]: 7.8% | weight change (in words) ([1]; over time): initial numerical weight increase

Cn1c(=O)cc(N2CCC[C@@H](N)C2)n(Cc2ccccc2C#N)c1=O [alogliptin]
effect on major adverse CV event (MACE) outcomes (in words) (patients with T2D): neutral effect

N#C[C@@H]1C[C@@H]2C[C@@H]2N1C(=O)[C@@H](N)C12CC3CC(CC(O)(C3)C1)C2 [saxagliptin]
effect on major adverse CV event (MACE) outcomes (in words) (patients with T2D): neutral effect

N[C@@H](CC(=O)N1CCn2c(nnc2C(F)(F)F)C1)Cc1cc(F)c(F)cc1F [sitagliptin]
effect on major adverse CV event (MACE) outcomes (in words) (patients with T2D): neutral effect

Reference: patent US20240398818A1, “Cardiosafe Antidiabetic Therapy” (priority 2018, published 2024)
